Experimental data from patent US20200405697A1, “Antitumor Agent” (Taiho Pharmaceutical Co., Ltd, priority 2017, published 2020).

Molecular target: T1, human RNR (histidine tagged human M1 and human M2 proteins) (Homo sapiens, UniProt P23921)
T1 construct: made in house; host or cells: Escherichia coli
T1 sequence (P23921 1-792): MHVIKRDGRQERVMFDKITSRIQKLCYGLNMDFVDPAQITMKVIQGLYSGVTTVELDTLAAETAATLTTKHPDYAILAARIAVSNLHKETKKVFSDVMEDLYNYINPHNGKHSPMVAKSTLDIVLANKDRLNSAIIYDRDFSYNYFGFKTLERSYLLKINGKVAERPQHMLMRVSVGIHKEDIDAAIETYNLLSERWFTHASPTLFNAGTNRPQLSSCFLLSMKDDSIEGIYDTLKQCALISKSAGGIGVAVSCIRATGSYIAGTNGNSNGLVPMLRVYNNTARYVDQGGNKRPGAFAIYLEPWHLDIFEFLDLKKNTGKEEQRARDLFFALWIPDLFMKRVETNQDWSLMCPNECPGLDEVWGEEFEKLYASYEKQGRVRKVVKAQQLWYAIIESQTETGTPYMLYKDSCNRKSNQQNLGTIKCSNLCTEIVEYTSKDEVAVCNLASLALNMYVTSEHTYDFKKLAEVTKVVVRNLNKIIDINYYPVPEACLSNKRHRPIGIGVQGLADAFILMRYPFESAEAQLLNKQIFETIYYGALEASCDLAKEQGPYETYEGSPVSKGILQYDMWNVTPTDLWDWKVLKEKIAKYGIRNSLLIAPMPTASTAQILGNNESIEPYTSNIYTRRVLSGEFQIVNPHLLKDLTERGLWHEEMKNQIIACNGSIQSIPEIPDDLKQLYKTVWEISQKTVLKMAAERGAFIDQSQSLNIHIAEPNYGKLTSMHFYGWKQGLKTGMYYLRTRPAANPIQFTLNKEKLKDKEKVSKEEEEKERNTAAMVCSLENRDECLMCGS
Assay: Human RNR inhibition effect (dCDP formation from CDP)
Format: biochemical
Details: 10 μM CDP, 37° C. for 30 minutes, read-out: RNR inhibitory activity IC50
Method in brief: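 His-tagged human M1 (isoform 1) and N-terminal 59-aa-truncated M2 (isoform 2), E. coli-expressed, Ni-purified, preincubated 20 min with compound (1% DMSO). Reaction with 10 μM CDP, 2 mM ATP, 0.24 mM NADPH, 6 mM DTT, 4 mM Mg acetate, 100 mM KCl, 50 mM HEPES pH 7.2, 30 min at 37° C. dCDP formed quantified by reverse-phase HPLC after heat stop.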

IC50 [nM]	SMILES
990	Cc1ccc(F)c([C@@H](C)[C@H](NS(=O)(=O)c2ncc(Br)cc2C(=O)O)c2n[nH]c(=O)o2)c1C [Example 214, 5-bromo-2-(N-((1S,2R)-2-(6-fluoro-2,3-dimethylphenyl)-1-(5-oxo-4,5-dihydro-1,3,4-oxadiazol-2-yl)propyl)sulfamoyl)nicotinic acid]
190	Cc1ccc(F)c([C@@H](C)[C@H](NS(=O)(=O)c2ccc(Cl)c(C(=O)O)n2)c2n[nH]c(=O)o2)c1C [Example 215, 3-chloro-6-(N-((1S,2R)-2-(6-fluoro-2,3-dimethylphenyl)-1-(5-oxo-4,5-dihydro-1,3,4-oxadiazol-2-yl)propyl)sulfamoyl)picolinic acid]
200	COc1c(S(=O)(=O)N[C@H](c2n[nH]c(=O)o2)[C@H](C)c2c(F)ccc(C)c2C)ncc(Cl)c1C(C)O (stereo partly drawn) [Example 216, 5-chloro-N-((1S,2R)-2-(6-fluoro-2,3-dimethylphenyl)-1-(5-oxo-4,5-dihydro-1,3,4-oxadiazol-2-yl)propyl)-4-(1-hydroxyethyl)-3-methoxypyridine-2-sulfonamide]
960	Cc1ccc(F)c([C@@H](C)[C@H](NS(=O)(=O)c2cc(F)c(Cl)cc2C(=O)O)c2n[nH]c(=O)o2)c1C [Example 217, 5-chloro-4-fluoro-2-(N-((1S,2R)-2-(6-fluoro-2,3-dimethylphenyl)-1-(5-oxo-4,5-dihydro-1,3,4-oxadiazol-2-yl)propyl)sulfamoyl)benzoic acid]
270	Cc1ccc(F)c([C@@H](C)[C@H](NS(=O)(=O)c2c(F)cc(Cl)cc2C(=O)O)c2n[nH]c(=O)o2)c1C [Example 219, 5-chloro-3-fluoro-2-(N-((1S,2R)-2-(6-fluoro-2,3-dimethylphenyl)-1-(5-oxo-4,5-dihydro-1,3,4-oxadiazol-2-yl)propyl)sulfamoyl)benzoic acid]
790	Cc1ccc(F)c([C@@H](C)[C@H](NS(=O)(=O)c2cc3c(cc2C(=O)O)OCCO3)c2n[nH]c(=O)o2)c1C [Example 223, 7-(N-((1S,2R)-2-(6-fluoro-2,3-dimethylphenyl)-1-(5-oxo-4,5-dihydro-1,3,4-oxadiazol-2-yl)propyl)sulfamoyl)-2,3-dihydrobenzo[b][1,4]dioxin-6-Carboxylic Acid]
650	CC(O)c1cc(S(=O)(=O)N[C@H](c2n[nH]c(=O)o2)[C@H](C)c2cccc3c2CCC3)ccc1Cl (stereo partly drawn) [Example 231, 4-chloro-N-((1S,2R)-2-(2,3-dihydro-1H-inden-4-yl)-1-(5-oxo-4,5-dihydro-1,3,4-oxadiazol-2-yl)propyl)-3-(1-hydroxyethyl)benzensulfonamide]
230	Cc1cccc2cccc([C@@H](C)[C@H](NS(=O)(=O)c3ccc(Cl)c4c3OCCC4O)c3n[nH]c(=O)o3)c12 (stereo partly drawn) [Example 232, 5-chloro-4-hydroxy-N-((1S,2R)-2-(8-methylnaphthalene-1-yl)-1-(5-oxo-4,5-dihydro-1,3,4-oxadiazol-2-yl)propyl)chroman-8-sulfonamide]
130	C[C@H](c1c(F)ccc2ccccc12)[C@H](NS(=O)(=O)c1ccc(Cl)c2c1OCCC2O)c1n[nH]c(=O)o1 (stereo partly drawn) [Example 233, 5-chloro-N-((1S,2R)-2-(2-fluoronaphthalene-1-yl)-1-(5-oxo-4,5-dihydro-1,3,4-oxadiazol-2-yl)propyl)-4-hydroxychroman-8-sulfonamide]
380	Cc1ccc(F)c([C@@H](C)[C@H](NS(=O)(=O)c2ccc(Cl)cc2C(C)O)c2n[nH]c(=O)o2)c1C (stereo partly drawn) [Example 236, 4-chloro-N-((1S,2R)-2-(6-fluoro-2,3-dimethylphenyl)-1-(5-oxo-4,5-dihydro-1,3,4-oxadiazol-2-yl)propyl)-2-(1-hydroxyethyl)benzenesulfonamide]
910	Cc1ccc(F)c([C@@H](C)[C@H](NS(=O)(=O)c2ccc(Cl)c3c2C(O)CCC3)c2n[nH]c(=O)o2)c1C (stereo partly drawn) [Example 240, 4-chloro-N-((1S,2R)-2-(6-fluoro-2,3-dimethylphenyl)-1-(5-oxo-4,5-dihydro-1,3,4-oxadiazol-2-yl)propyl)-8-hydroxy-5,6,7,8-tetrahydronaphthalene-1-sulfonamide]
140	Cc1ccc(F)c([C@@H](C)[C@H](NS(=O)(=O)c2ccc(F)c3c2OCCC3O)c2n[nH]c(=O)o2)c1C (stereo partly drawn) [Example 241, 5-fluoro-N-((1S,2R)-2-(6-fluoro-2,3-dimethylphenyl)-1-(5-oxo-4,5-dihydro-1,3,4-oxadiazol-2-yl)propyl)-4-hydroxychroman-8-sulfonamide]
230	Cc1ccc(F)c([C@@H](C)[C@H](NS(=O)(=O)c2c(F)cc(F)c3c2OCCC3O)c2n[nH]c(=O)o2)c1C (stereo partly drawn) [Example 242, 5,7-difluoro-N-((1S,2R)-2-(6-fluoro-2,3-dimethylphenyl)-1-(5-oxo-4,5-dihydro-1,3,4-oxadiazol-2-yl)propyl)-4-hydroxychroman-8-sulfonamide]
40	Cc1ccc(F)c([C@@H](C)[C@H](NS(=O)(=O)c2ncc(Cl)cc2C(N)=O)c2n[nH]c(=O)o2)c1C [Example 245, 5-chloro-2-(N-((1S,2R)-2-(6-fluoro-2,3-dimethylphenyl)-1-(5-oxo-4,5-dihydro-1,3,4-oxadiazol-2-yl)propyl)sulfamoyl)nicotinamide]
500	Cc1ccc(F)c([C@@H](C)[C@H](NS(=O)(=O)c2ccc(Cl)cc2C(=O)N(C)C)c2n[nH]c(=O)o2)c1C [Example 246, 5-chloro-2-(N-((1S,2R)-2-(6-fluoro-2,3-dimethylphenyl)-1-(5-oxo-4,5-dihydro-1,3,4-oxadiazol-2-yl)propyl)sulfamoyl)-N,N-dimethylbenzamide]
410	Cc1ccc(F)c([C@@H](C)[C@H](NS(=O)(=O)c2ccc(Cl)cc2C(=O)N2CCC2)c2n[nH]c(=O)o2)c1C [Example 247, 2-(azetidine-1-carbonyl)-4-chloro-N-((1S,2R)-2-(6-fluoro-2,3-dimethylphenyl)-1-(5-oxo-4,5-dihydro-1,3,4-oxadiazol-2-yl)propyl)benzenesulfonamide]
270	Cc1ccc(F)c([C@@H](C)[C@H](NS(=O)(=O)c2ccc(Cl)cc2C(=O)NCCO)c2n[nH]c(=O)o2)c1C [Example 248, 5-chloro-2-(N-((1S,2R)-2-(6-fluoro-2,3-dimethylphenyl)-1-(5-oxo-4,5-dihydro-1,3,4-oxadiazol-2-yl)propyl)sulfamoyl)-N-(2-hydroxyethyl)benzamide]
100	Cc1c(Cl)ccc(F)c1[C@@H](C)[C@H](NS(=O)(=O)c1ncc(Cl)cc1C(N)=O)c1n[nH]c(=O)o1 [Example 249, 5-chloro-2-(N-((1S,2R)-2-(3-chloro-6-fluoro-2-methylphenyl)-1-(5-oxo-4,5-dihydro-1,3,4-oxadiazol-2-yl)propyl)sulfamoyl)nitotinamide]
20	Cc1ccc(F)c([C@@H](C)[C@H](NS(=O)(=O)c2ncc(Br)cc2C(N)=O)c2n[nH]c(=O)o2)c1C [Example 250, 5-bromo-2-(N-((1S,2R)-2-(6-fluoro-2,3-dimethylphenyl)-1-(5-oxo-4,5-dihydro-1,3,4-oxadiazol-2-yl)propyl)sulfamoyl)nicotinamide]
250	CNC(=O)c1cc(Br)cnc1S(=O)(=O)N[C@H](c1n[nH]c(=O)o1)[C@H](C)c1c(F)ccc(C)c1C [Example 251, 5-bromo-2-(N-((1S,2R)-2-(6-fluoro-2,3-dimethylphenyl)-1-(5-oxo-4,5-dihydro-1,3,4-oxadiazol-2-yl)propyl)sulfamoyl)-N-methylnicotinamide]
60	CNC(=O)c1nc(S(=O)(=O)N[C@H](c2n[nH]c(=O)o2)[C@H](C)c2c(F)ccc(C)c2C)ccc1Cl [Example 252, 3-chloro-6-(N-((1S,2R)-2-(6-fluoro-2,3-dimethylphenyl)-1-(5-oxo-4,5-dihydro-1,3,4-oxadiazol-2-yl)propyl)sulfamoyl)-N-methylpicolinamide]
80	Cc1ccc(F)c([C@@H](C)[C@H](NS(=O)(=O)c2ccc(Cl)c(C(=O)N(C)C)n2)c2n[nH]c(=O)o2)c1C [Example 253, 3-chloro-6-(N-((1S,2R)-2-(6-fluoro-2,3-dimethylphenyl)-1-(5-oxo-4,5-dihydro-1,3,4-oxadiazol-2-yl)propyl)sulfamoyl)-N,N-dimethylpicolinamide]
70	Cc1c(Cl)ccc(F)c1[C@@H](C)[C@H](NS(=O)(=O)c1ncc(Br)cc1C(N)=O)c1n[nH]c(=O)o1 [Example 254, 5-bromo-2-(N-((1S,2R)-2-(3-chloro-6-fluoro-2-methylphenyl)-1-(5-oxo-4,5-dihydro-1,3,4-oxadiazol-2-yl)propyl)sulfamoyl)nicotinamide]
